One assay addresses human CYP11B1 (Homo sapiens (Human), UniProt P15538). Put plainly: G-402 cellular enzyme assay, human CYP11B1 (cortisol release, HTRF). The settings on record: G-402 cells expressing human CYP11B1; 1 μM Deoxycortisol. Format: cell-based. An excerpt:
(§1) Herein we identified the use of the G-402 cell line as a host cell to ectopically express (transiently or stably) enzymes of the CYP11 family. Specifically we developed stable G-402 cells expressing ectopically human CYP11B1, human CYP11B2, human CYP11A1, cynmolgus CYP11B1 or cynomolgus CYP11B2 enzyme activity. Importantly the identified cell line G-402 expresses co-factors (adrenodoxin and adrenodoxin reductase) important for the activity of the CYP11 family and no relevant enzyme activity of the CYP11 family (in comparison to H295R cells) was detected in these cells. Therefore the G-402 cell line is uniquely suited as a host cell for the ectopic expression of enzymes from the CYP11 family.
(§2) G-402 cells can be obtained from ATCC (CRL-1440) and were originally derived from a renal leiomyoblastoma.
(§3) The expression plasmids contains the ORF for either human/cyno CYP11B1 or CYP11B2 under the control of a suitable promoter (CMV-promoter) and a suitable resistance marker (neomycin). Using standard techniques the expression plasmid is transfected into G-402 cells and these cells are then selected for expressing the given resistance markers. Individual cell-clones are then selected and assessed for displaying the desired enzymatic activity using 11-Deoxycorticosterone (Cyp11B2) or 11-Deoxycortisol (Cyp11B1) as a substrate.
(§4) G-402 cells expressing CYP11 constructs were established as described above and maintained in McCoy's 5a Medium Modified, ATCC Catalog No. 30-2007 containing 10% FCS and 400 μg/ml G418 (Geneticin) at 37° C. under an atmosphere of 5% CO2/95% air. Cellular enzyme assays were performed in DMEM/F12 medium containing 2.5% charcoal treated FCS and appropriate concentration of substrate (0.3-10 uM 11-Deoxycorticosterone, 11-Deoxycortisol or Corticosterone). For assaying enzymatic activity, cells were plated onto 96 well plates and incubated for 16 h. An aliquot of the supernatant is then transferred and analyzed for the concentration of the expected product (Aldosterone for CYP11B2; Cortisol for CYP11B1). The concentrations of these steroids can be determined using HTRF assays from CisBio analyzing either Aldosterone or Cortisol.
(§5) Inhibition of the release of produced steroids can be used as a measure of the respective enzyme inhibition by test compounds added during the cellular enzyme assay. The dose dependent inhibition of enzymatic activity by a compound is calculated by means of plotting added inhibitor concentrations (x-axes) vs. measured steroid/product level (y-axes). The inhibition is then calculated by fitting the following 4-parameter sigmoidal function (Morgan-Mercer-Flodin (MMF) model) to the raw data points using the least squares method:
(§6) [formula] wherein, A is the maximum y value, B is the EC50 factor determined using XLFit, C is the minimum y value and D is the slope value.
(§7) EC50 values for compounds claimed herein were tested with the G402-based assay system described. Cyp11B2 enzyme activity was tested in presence of 1 μM Deoxycorticosterone and variable amounts of inhibitors; Cyp11B1 enzyme activity was tested in presence of 1 μM Deoxycortisol and variable amounts of inhibitors.
On the technique in general: Time-resolved FRET reads energy transfer from a long-lived donor to a nearby acceptor.

In a further assay the target is human CYP11B2 (Homo sapiens (Human), UniProt P19099). Put plainly: G-402 cellular enzyme assay, human CYP11B2 (aldosterone release, HTRF). It is filed as cell-based. Particulars: G-402 cells expressing human CYP11B2; 1 μM Deoxycorticosterone.
human CYP11B2, sequence (P19099 25-503): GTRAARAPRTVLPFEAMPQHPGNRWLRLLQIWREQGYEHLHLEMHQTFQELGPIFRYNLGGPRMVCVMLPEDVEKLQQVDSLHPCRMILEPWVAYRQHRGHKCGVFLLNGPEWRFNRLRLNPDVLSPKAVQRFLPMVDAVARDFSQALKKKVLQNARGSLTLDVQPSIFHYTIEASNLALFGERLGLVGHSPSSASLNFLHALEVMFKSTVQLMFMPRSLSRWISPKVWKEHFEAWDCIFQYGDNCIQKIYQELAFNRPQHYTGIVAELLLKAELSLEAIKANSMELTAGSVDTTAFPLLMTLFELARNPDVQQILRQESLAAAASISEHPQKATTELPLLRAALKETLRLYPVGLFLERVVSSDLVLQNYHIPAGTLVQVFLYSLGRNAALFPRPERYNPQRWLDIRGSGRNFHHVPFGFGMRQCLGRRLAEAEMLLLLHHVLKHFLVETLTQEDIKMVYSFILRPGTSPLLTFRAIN
From the text: as §1, §2, §3, §4, §5, §6, §7

What is called EC50 is the midpoint of the concentration-response curve.

human CYP11B1, sequence (P15538 25-503): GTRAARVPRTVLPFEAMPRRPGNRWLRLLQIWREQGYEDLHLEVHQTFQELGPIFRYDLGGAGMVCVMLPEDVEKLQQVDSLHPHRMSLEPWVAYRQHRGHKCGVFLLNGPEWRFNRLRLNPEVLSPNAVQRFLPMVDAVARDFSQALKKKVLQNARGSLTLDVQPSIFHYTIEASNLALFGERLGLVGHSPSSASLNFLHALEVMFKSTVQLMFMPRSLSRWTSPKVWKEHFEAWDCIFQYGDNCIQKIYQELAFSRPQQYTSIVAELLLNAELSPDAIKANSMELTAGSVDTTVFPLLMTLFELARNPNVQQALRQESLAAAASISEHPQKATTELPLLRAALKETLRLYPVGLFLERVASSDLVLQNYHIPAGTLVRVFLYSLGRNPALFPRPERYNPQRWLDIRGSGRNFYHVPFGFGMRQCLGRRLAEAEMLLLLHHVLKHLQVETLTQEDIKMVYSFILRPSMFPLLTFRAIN

As for `N#Cc1ccc(Oc2cn[nH]c2-c2cccc(COc3cccc(F)n3)c2)cc1` [Example 69, 4-[[3-[3-[(6-Fluoropyridin-2-yl)oxymethyl]phenyl]-1H-pyrazol-4-yl]oxy]benzonitrile], the EC50 at human CYP11B1 was found to be 47.7 nM; at human CYP11B2, 16.9 nM.
Taken in the same sequence, the figures for `Fc1cc(Cl)ccc1-c1[nH]ncc1Oc1ccc(C(F)(F)F)cc1` [Example 27, 5-(4-Chloro-2-fluorophenyl)-4-[4-(trifluoromethyl)phenoxy]-1H-pyrazole] were 3320 nM and 575 nM.
Take `N#Cc1ccc(Oc2cn[nH]c2-c2ccnc(Cl)c2)cc1` [Example 37, 4-[[5-(2-Chloropyridin-4-yl)-1H-pyrazol-4-yl]oxy]benzonitrile]: the figures for the 50% effective concentration (EC50) at human CYP11B1 and on human CYP11B2 were 10500 nM and 317 nM, respectively.
For `N#Cc1ccc(Oc2cn[nH]c2-c2ccccc2OCc2ccccn2)cc1` [Example 79, 4-[[3-[2-(Pyridin-2-ylmethoxy)phenyl]-1H-pyrazol-4-yl]oxy]benzonitrile], the EC50 was 2.5 nM on human CYP11B1 and 0.2 nM at human CYP11B2.
Consider `Cn1cc(-c2[nH]ncc2Oc2ccc(C#N)cc2)cn1` [Example 67, 4-[[3-(1-Methylpyrazol-4-yl)-1H-pyrazol-4-yl]oxy]benzonitrile], for which the EC50 worked out at 3270 nM at human CYP11B1 and 251 nM at human CYP11B2.
For `Fc1cc(C(F)(F)F)ccc1-c1[nH]ncc1Oc1ccc(Cl)cc1` [Example 13, 4-(4-Chlorophenoxy)-5-[2-fluoro-4-(trifluoromethyl)phenyl]-1H-pyrazole], the EC50 on human CYP11B1 came out at 2470 nM; on human CYP11B2, 408 nM.
Turning to `N#Cc1ccc(Oc2cn[nH]c2-c2cccc(OCc3ccncc3)c2)cc1` [Example 54, 4-[[3-[3-(Pyridin-4-ylmethoxy)phenyl]-1H-pyrazol-4-yl]oxy]benzonitrile], the EC50 turned out to be 46.5 nM on human CYP11B1 and 3.5 nM on human CYP11B2.
Taken in the same sequence, the figures for `N#Cc1ccc(Oc2cn[nH]c2-c2cccc(OCc3ccccc3)c2)cc1` [Example 36, 4-[[5-(3-Phenylmethoxyphenyl)-1H-pyrazol-4-yl]oxy]benzonitrile] were 52.9 nM and 16.8 nM.
Take `COc1ccc(-c2[nH]ncc2Oc2ccc(Cl)cc2)c(OC)c1` [Example 5, 4-(4-Chlorophenoxy)-3-(2,4-dimethoxyphenyl)-1H-pyrazole]: the EC50 is 11.6 nM on human CYP11B1 and 2.5 nM on human CYP11B2.
In the case of `N#Cc1ccc(Oc2cn[nH]c2-c2cccc(O)c2)cc1` [Example 48, 4-[[3-(3-Hydroxyphenyl)-1H-pyrazol-4-yl]oxy]benzonitrile], the results for the EC50 on human CYP11B1 and at human CYP11B2 were 83.4 nM and 20.4 nM, respectively.
With `N#Cc1ccc(Oc2cn[nH]c2-c2ccccc2Cn2ccc(=O)cc2)cc1` [Example 83, 4-[[3-[2-[(4-Oxopyridin-1-yl)methyl]phenyl]-1H-pyrazol-4-yl]oxy]benzonitrile], the figures for the EC50 on human CYP11B1 and on human CYP11B2 were 2880 nM and 321 nM, respectively.
For the molecule `FC(F)(F)c1ccc(-c2[nH]ncc2Oc2ccc(Cl)cc2)cc1` [Example 14, 4-(4-Chlorophenoxy)-5-[4-(trifluoromethyl)phenyl]-1H-pyrazole], the EC50 came out at 2670 nM at human CYP11B1 and 2030 nM on human CYP11B2.
Consider `Cn1nncc1COc1c(Cl)cccc1-c1[nH]ncc1Oc1ccc(C#N)cc1` [Example 90, 4-[[3-[3-Chloro-2-[(3-methyltriazol-4-yl)methoxy]phenyl]-1H-pyrazol-4-yl]oxy]benzonitrile], for which the EC50 at human CYP11B1 came to 1580 nM; on human CYP11B2, 159 nM.
In the case of `N#Cc1ccc(Oc2cn[nH]c2-c2cccc(C(=O)N3CC(CO)C3)c2)cc1` [Example 47, 4-[[3-[3-[3-(Hydroxymethyl)azetidine-1-carbonyl]phenyl]-1H-pyrazol-4-yl]oxy]benzonitrile], the EC50 amounted to 159 nM at human CYP11B1 and 281 nM at human CYP11B2.
Taken in the same sequence, the figures for `N#Cc1ccc(Oc2cn[nH]c2-c2cnn(Cc3ccccc3)c2)cc1` [Example 68, 4-[[5-(1-Benzylpyrazol-4-yl)-1H-pyrazol-4-yl]oxy]benzonitrile] were 2400 nM and 439 nM.
For the molecule `Fc1cccc(-c2[nH]ncc2Oc2ccc(Cl)cc2)c1Cl` [Example 34, 5-(2-Chloro-3-fluorophenyl)-4-(4-chlorophenoxy)-1H-pyrazole], the EC50 at human CYP11B1 was determined as 262 nM; at human CYP11B2 it was 39.2 nM.
Consider `Cn1nncc1COc1cccc(-c2[nH]ncc2Oc2ccc(C#N)cc2)c1` [Example 53, 4-[[3-[3-[(3-Methyltriazol-4-yl)methoxy]phenyl]-1H-pyrazol-4-yl]oxy]benzonitrile], for which the EC50 at human CYP11B1 was determined as 198 nM; on human CYP11B2 it was 23.8 nM.
Taken in the same sequence, the figures for `Cc1ccc(Oc2cn[nH]c2-c2ccccc2Cl)cn1` [Example 20, 5-[[5-(2-Chlorophenyl)-1H-pyrazol-4-yl]oxy]-2-methylpyridine] were 3390 nM and 311 nM.
On to `Cc1cc(COc2cccc(-c3[nH]ncc3Oc3ccc(C#N)cc3)c2)on1` [Example 52, 4-[[3-[3-[(3-Methyl-1,2-oxazol-5-yl)methoxy]phenyl]-1H-pyrazol-4-yl]oxy]benzonitrile], for which the 50% effective concentration (EC50) at human CYP11B1 was 32.3 nM; on human CYP11B2, 14.8 nM.
Taken in the same sequence, the figures for `CS(=O)(=O)c1ccc(-c2[nH]ncc2Oc2ccc(Cl)cc2)c(Cl)c1` [Example 42, 5-(2-Chloro-4-methylsulfonylphenyl)-4-(4-chlorophenoxy)-1H-pyrazole] were 345 nM and 29.8 nM.
As for `N#Cc1ccc(Oc2cn[nH]c2-c2ccccc2Cl)cc1` [Example 25, 4-[[5-(2-Chlorophenyl)-1H-pyrazol-4-yl]oxy]benzonitrile], the EC50 at human CYP11B1 worked out at 18.5 nM; on human CYP11B2, 0.2 nM.
Take `N#Cc1ccc(Oc2cn[nH]c2-c2cccc(OCc3cccnc3)c2)cc1` [Example 51, 4-[[3-[3-(Pyridin-3-ylmethoxy)phenyl]-1H-pyrazol-4-yl]oxy]benzonitrile]: the EC50 at human CYP11B1 was 51.3 nM; at human CYP11B2 it was 9.5 nM.
`N#Cc1ccc(Oc2cn[nH]c2-c2cccc(CN3CC(F)(CO)C3)c2)cc1` [Example 74, 4-[[3-[3-[[3-Fluoro-3-(hydroxymethyl)azetidin-1-yl]methyl]phenyl]-1H-pyrazol-4-yl]oxy]benzonitrile]: the values for the EC50 on human CYP11B1 and at human CYP11B2 were 36.2 nM and 19.7 nM, respectively.
Regarding `N#Cc1ccc(Oc2cn[nH]c2-c2ccccc2OCc2ccccc2)cc1` [Example 41, 4-[[5-(2-Phenylmethoxyphenyl)-1H-pyrazol-4-yl]oxy]benzonitrile], the EC50 at human CYP11B1 was 0.5 nM; on human CYP11B2 it was 0.1 nM.
`CC(=O)N1CCC(Oc2cccc(-c3[nH]ncc3Oc3ccc(C#N)cc3)c2)C1` (racemic) [Example 58, (rac)-4-[[3-[3-(1-Acetylpyrrolidin-3-yl)oxyphenyl]-1H-pyrazol-4-yl]oxy]benzonitrile]: the EC50 stood at 1510 nM on human CYP11B1 and 215 nM on human CYP11B2.
Take `Cn1cc(C(=O)N2CCCC(c3[nH]ncc3Oc3ccc(C#N)cc3)C2)cn1` (racemic) [Example 63, (rac)-4-[[3-[1-(1-Methylpyrazole-4-carbonyl)piperidin-3-yl]-1H-pyrazol-4-yl]oxy]benzonitrile]: the EC50 at human CYP11B1 came to 6470 nM; on human CYP11B2 it was 150 nM.
Consider `CSc1ccc(-c2[nH]ncc2Oc2ccc(Cl)cc2)c(Cl)c1` [Example 17, 5-(2-Chloro-4-methylsulfanylphenyl)-4-(4-chlorophenoxy)-1H-pyrazole], for which the EC50 on human CYP11B1 stood at 522 nM; at human CYP11B2 it was 60.8 nM.
For the molecule `N#Cc1ccc(Oc2cn[nH]c2-c2cccc(F)c2Cl)cc1` [Example 35, 4-[[5-(2-Chloro-3-fluorophenyl)-1H-pyrazol-4-yl]oxy]benzonitrile], the EC50 was 68.6 nM on human CYP11B1 and 1.5 nM at human CYP11B2.
In the case of `N#Cc1ccc(Oc2cn[nH]c2-c2cccc(C(=O)N3CCOCC3)c2)cc1` [Example 45, 4-[[3-[3-(Morpholine-4-carbonyl)phenyl]-1H-pyrazol-4-yl]oxy]benzonitrile], the values for the EC50 at human CYP11B1 and at human CYP11B2 were 2400 nM and 397 nM, respectively.
Consider `Fc1cc(Cl)ccc1Oc1cn[nH]c1-c1ccccc1Cl` [Example 24, 4-(4-Chloro-2-fluorophenoxy)-5-(2-chlorophenyl)-1H-pyrazole], for which the values for the EC50 on human CYP11B1 and at human CYP11B2 were 350 nM and 10.2 nM, respectively.
